Values quoted from earlier work as cited in patent publication US20170335399A1, “DETECTION OF MINERALOCORTICOID RECEPTOR ACTIVATION AND PERSONALIZED ANTIHYPERTENSIVE THERAPY BASED THEREON” (The Regents of University of Michigan, priority 2014, published 2017).

Key:
[1] = target: T1, mineralocorticoid receptor (MR) (Homo sapiens, UniProt P08235); conditions: resistant hypertension patients; ASPIRANT trial; placebo-corrected mean
T1 construct: host or cells: patients with resistant hypertension (in vivo)
T1 sequence (P08235 1-984): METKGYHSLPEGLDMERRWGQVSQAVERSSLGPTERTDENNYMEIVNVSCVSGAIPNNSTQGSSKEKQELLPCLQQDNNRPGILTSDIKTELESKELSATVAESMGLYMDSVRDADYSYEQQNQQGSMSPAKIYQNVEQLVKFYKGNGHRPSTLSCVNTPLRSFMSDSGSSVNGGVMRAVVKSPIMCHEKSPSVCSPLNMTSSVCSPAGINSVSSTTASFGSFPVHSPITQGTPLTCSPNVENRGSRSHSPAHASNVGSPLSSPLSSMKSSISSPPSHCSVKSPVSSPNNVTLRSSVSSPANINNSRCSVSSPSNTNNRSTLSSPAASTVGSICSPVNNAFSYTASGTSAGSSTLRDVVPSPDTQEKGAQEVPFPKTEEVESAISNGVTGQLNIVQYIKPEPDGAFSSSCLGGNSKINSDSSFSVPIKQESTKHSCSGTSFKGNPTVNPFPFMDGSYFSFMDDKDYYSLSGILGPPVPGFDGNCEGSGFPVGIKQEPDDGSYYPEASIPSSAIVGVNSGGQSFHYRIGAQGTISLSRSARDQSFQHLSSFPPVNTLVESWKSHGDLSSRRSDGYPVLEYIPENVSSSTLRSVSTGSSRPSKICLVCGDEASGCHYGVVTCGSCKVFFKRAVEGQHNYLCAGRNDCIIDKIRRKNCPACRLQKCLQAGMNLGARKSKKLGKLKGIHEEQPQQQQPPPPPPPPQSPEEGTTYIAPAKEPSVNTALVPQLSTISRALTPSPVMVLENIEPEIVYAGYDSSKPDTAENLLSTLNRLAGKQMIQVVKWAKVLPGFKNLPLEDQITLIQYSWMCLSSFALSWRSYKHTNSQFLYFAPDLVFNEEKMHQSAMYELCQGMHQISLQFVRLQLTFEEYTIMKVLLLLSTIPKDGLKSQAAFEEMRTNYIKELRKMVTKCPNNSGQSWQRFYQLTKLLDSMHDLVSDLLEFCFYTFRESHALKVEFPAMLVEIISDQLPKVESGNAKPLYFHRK

ENaC = conditions: patients treated with spironolactone
[2] = target: T1, mineralocorticoid receptor (MR); conditions: resistant hypertension; after addition of spironolactone; other studies

Structure (SMILES): CC(=O)S[C@@H]1CC2=CC(=O)CC[C@]2(C)[C@H]2CC[C@@]3(C)[C@@H](CC[C@@]34CCC(=O)O4)[C@H]12 [spironolactone]
- mean reduction of 24-hour systolic blood pressure more than placebo [1]: 9.8 mm Hg
- ENaC expression on peripheral blood mononuclear cells (ENaC): decreased
- mean reductions in systolic blood pressure [2]: 16-26 mm Hg
